Data set [1] relates to MMR activity (ATPase-dependent). As to conditions: in vitro assays; Galio 1999, Allen 1997, Bjornson 2000; cited from earlier work.
Data set [2] relates to mismatch repair (MMR) in H36 pCAR-OF cells. In kind it is cell-based, murine. The note with it: for generation of β-galactosidase positive cells / MI and shifting of the polynucleotide tract in the pCAR-OF reporter: H36 pCAR-OF cells.
In data set [3] the test system is human HEK293 cells (BAT26 microsatellite marker). Description: BAT26 microsatellite instability of endogenous loci in 293 cells (PCR, cloning, sequencing). The class given is cell-based. How it is done:
(§1) Briefly, 10^5 cells were grown in control medium or 250 μM DMA, a concentration that is found to be non-toxic, for 14 to 17 days. Cells are then harvested and genomic DNA isolated using the salting out method (Nicolaides, N. C. et al. (1991) Mol. Cell. Biol. 11:6166-6176.).
Various amounts of test DNAs from HCT116 (a human colon epithelial cell line) and 293 were first used to determine the sensitivity of our microsatellite test. The BAT26 alleles are known to be heterogeneous between these two cell lines and the products migrate at different molecular weights (Nicolaides personal observation). DNAs were diluted by limiting dilution to determine the level of sensitivity of the assay. DNAs were PCR amplified using the BAT26F: 5′-[…]-3′ (SEQ ID NO:43) and the BAT26R: 5′-[…]-3′ (SEQ ID NO:44) primers in buffers as described (Nicolaides, N. C. et al. (1995) Genomics 30:195-206). Briefly 1 pg to 100 ngs of DNA were amplified using the following conditions: 94° C. for 30 sec, 58° C. for 30 sec, 72° C. for 30 sec for 30 cycles. […]
To measure for microsatellite stability in 293 cells grown with or without DMA, 0.1 ngs of DNA from DMA-treated or control 293 cells were amplified using the reaction conditions above. […] Fifty bacterial colonies were analyzed for BAT26 structure by directly adding an aliquot of live bacteria to the PCR mix. […]

Data set [4] concerns Arabidopsis thaliana. The data set can be described thus: Toxicity curve on Arabidopsis seeds on MS phytagar plates (root and shoot formation). The class given is in vivo. As to conditions: for Dead: non-germinated seeds. How it is done: Briefly, AT seeds were sterilized with straight commercial bleach and 100 seeds were plated in 100 mm Murashige and Skoog (MS) phytagar (Life Technology) plates with increasing amounts of DMA (ranging from 100 μm to 50 mM). A similar amount of seeds were plated on MS phytagar only or in MS phytagar with increasing amounts of EMS (1001M to 50 mM), a mutagen commonly used to mutate AT seeds (McCallum, C. M. et al. (2000) Nat. Biotechnol. 18:455-457). Plates were grown in a temperature-controlled, fluorescent-lighted humidifier (Percival Growth Chamber) for 10 days. After 10 days, seeds were counted to determine toxicity levels for each compound. […] Plantlets that were identical to untreated seeds were scored healthy. Seeds with stunted root or shoot formation were scored intermediate (inter). Non-germinated seeds were scored dead.

Data set [5] deals with Arabidopsis thaliana. The data set can be described thus: New phenotypes in offspring of chemically exposed Arabidopsis plants. As to conditions: for offspring with small light green appearance (altered phenotype): offspring grown in standard soil conditions for 17 days, FIG. 6; for phenotypically distinct plants among offspring at day 10: offspring of plants grown from seeds on 2 mM DMA or 250 μM EMS for 10 days. The class given is in vivo. How it is done:
Next, 50 seeds were plated in two 150 mm dishes containing 2 mM DMA, 250 μM EMS or no drug. Seeds were grown for 10 days and then 10 plants from each plate were transferred to soil. All plants appeared to be similar in color and height. Plants were grown at room temperature with daily cycles of 18 hr light and 6 hr dark. After 45 days seeds are harvested from siliques and stored in a desiccator at 4° C. for 72 hours. Seeds are then sterilized and 100 seeds from each plant is sown directly into water-saturated soil and grown at room temperature with daily cycles of 18 hr light and 6 hr dark. […] These 7 altered plants were light green in color and appeared to grow slower. […] DMA-exposed plants produced offspring that were yellow in appearance in contrast to dark green, which is always found in wild-type plants. In addition, the yellow plants were also shorter. After 30 days, most wild-type plants produced flowers and siliques, while the 7 mutants just began flowering. After 45 days, control plants were harvested while mutant plants were harvested 10 to 15 days later.

For data set [6], the system named is Pichia yeast containing GUS-OF reporter. The data set can be described thus: Pichia yeast pGUS-OF MMR-sensitive reporter assay (X-glu plates). As to conditions: GUS-OF Pichia incubated with 300 μM chemical for 48 hours. In kind it is cell-based. How it is done:
Briefly, the GUS-OF and GUS-IF gene, which contains a polyA repeat at the N-terminus of the protein was subcloned from the pCR-IF-GUS and pCR-OF-GUS plasmids into the EcoRI site of the pGP vector, which is a consitutively expressed yeast vector containing a zeocin resistance gene as selectable marker. pGP-GUS-IF and pGP-GUS-OF vectors were electroporated into competent Pichia cells using standard methods known by those skilled in the art. Cells were plated on YPD agar (10 g/L yeast extract; 20 g/L peptone; 2% glucose; 1.5% bactoagar) plates containing 100 μg/ml zeocin. Recombinant yeast are then analyzed for GUS expression/function by replica plating on YPD agar plates containing 100 μg/ml zeocin plus 1 mg/ml X-glu (5-bromo-4-chloro-3-indoyl-beta-D-glucuronide sodium salt) and grown at 30° C. for 16 hours. […] None of the yeast containing the GUS-OF turned blue in the presence of the X-glu substrate under normal growth conditions.
After incubation, yeast were plated on YPD-ZEO-X-GLU plates and grown at 30° C. for 16 hours.

The next data set deals with human HEK293 cells. Description: Toxicity of DMA to 293 cells in culture. The class given is cell-based. The note with it: 14 to 17 days. How it is done: as §1
For data set [7] the following is noted: at high concentrations; Myers et al. 1988; cited from earlier work.
For the next data set, the system named is MMR defective cell lines. The note with it: mammalian cells; Chen et al. 2000; cited from earlier work.
Where [8] appears, read: Arabidopsis thaliana, in vivo, 10 days, 2.5 mM.
Setting [9] is: Arabidopsis thaliana, in vivo, 10 days, 5 mM.
[10] abbreviates: Arabidopsis thaliana, in vivo, 10 days, 10 mM.
Where [11] appears, read: Arabidopsis thaliana, in vivo, 10 days, 12.5 mM.
Where [12] appears, read: Arabidopsis thaliana, in vivo, 10 days, 25 mM.
Where [13] appears, read: Arabidopsis thaliana, in vivo, 10 days, 50 mM.

Entries after “also recorded” stand apart in the source; their conditions may differ.

In the case of `Nc1ncnc2c1ncn2[C@@H]1O[C@H](COP(=O)(O)OP(=O)(O)NP(=O)(O)O)[C@@H](O)[C@H]1O` [AMP-PNP], the “effect on MMR activity in vitro” value in data set [1] is given as “block the MMR activity”.
For the compound `Cc1c2ccccc2c(C)c2ccccc12` [DMA, 9,10-dimethylanthracene], the “generation of β-galactosidase positive cells / MI and shifting of the polynucleotide tract in the pCAR-OF reporter” value in data set [2] is recorded as “produces b-gal positive H36 pCAR-OF cells”. Also, the “cells positive for b-gal” value in data set [2] (H36 pCAR-OF cells grown in the presence of DMA, FIG. 3) is reported as “Approximately 3%”. Besides, the “BAT26 polyA repeat alleles by sequence analysis of clones” value in [3] (293 cells treated with DMA, control clone homozygous for 26 nt polyA repeat) is “multiple alleles ranging from the wild-type with 26 polyA repeat to shorter alleles (24 polyA repeat) and larger alleles (28 polyA repeat)”. In addition, in data set [3] (293 cells, 250 μM DMA, 14-17 days, PCR and gel electrophoresis), the “altered BAT26 alleles (microsatellite instability)” value was “showed the presence of an altered allele; also recorded: presence of a new allele in cells treated with DMA”. In the data set on Arabidopsis thaliana [4] (Arabidopsis seeds, continuous culture, from Table 2), the “concentration at which toxicity occurs” value is 10000 µM. In addition, the Dead in the data set with Arabidopsis thaliana [4] (concentration 0.1, 10 days) is listed as 0 per 100 seeds; in the data set with Arabidopsis thaliana [4] (concentration 0.5, 10 days) it was 0 per 100 seeds; with Arabidopsis thaliana [4] (concentration 1.0, 10 days), 0 per 100 seeds; with Arabidopsis thaliana [4] (concentration 2.5, 10 days) it was 0 per 100 seeds; in the data set on Arabidopsis thaliana [4] (concentration 5.0, 10 days), 0 per 100 seeds; with Arabidopsis thaliana [4] (concentration 10, 10 days) it was 0 per 100 seeds. Moreover, the Dead in the data set on Arabidopsis thaliana [4] (concentration 12.5, 10 days) is 0 per 100 seeds; in the data set with Arabidopsis thaliana [4] (concentration 25, 10 days) it was 0 per 100 seeds. Further, the Inter with Arabidopsis thaliana [4] (concentration 0.1, 10 days, stunted root or shoot formation scored intermediate) is on record as 0 per 100 seeds; with Arabidopsis thaliana [4] (concentration 0.5, 10 days, stunted root or shoot formation), 0 per 100 seeds; in the data set with Arabidopsis thaliana [4] (concentration 1.0, 10 days, stunted root or shoot formation), 0 per 100 seeds; in the data set with Arabidopsis thaliana [4] (concentration 50, 10 days, stunted root or shoot formation), 0 per 100 seeds. For the same compound, the Healthy with Arabidopsis thaliana [4] (concentration 12.5, 10 days on MS phytagar) came out at 0 per 100 seeds; with Arabidopsis thaliana [4] (concentration 25, 10 days on MS phytagar), 0 per 100 seeds; in the data set with Arabidopsis thaliana [4] (concentration 50, 10 days on MS phytagar), 0 per 100 seeds. Besides, in the data set on Arabidopsis thaliana [5], the “offspring with small light green appearance (altered phenotype)” value is “Six”. Further, the “phenotypically distinct plants among offspring at day 10” value in the data set with Arabidopsis thaliana [5] was 7 out of 118. Also, the “blue subclones (functional GUS) on YPD-ZEO-X-GLU plates” value in data set [6] is given as “a subset of yeast expressing GUS-OF contain blue subclones”. Further, in the data set on human HEK293 cells, the “concentration found to be non-toxic” value came to 250 µM. For the same compound, in data set [7], the mutagenic activity result is listed as “acts as a potent weak mutagen”.
Turning to `CCOS(C)(=O)=O` [EMS, ethyl methanesulfonate], the “generation of β-galactosidase positive cells / MI and shifting of the polynucleotide tract in the pCAR-OF reporter” value in data set [2] is on record as “did not result in MI and/or the shifting of the polynulceotide tract in the pCAR-OF reporter”. For the same compound, the “concentration at which toxicity occurs” value in the data set with Arabidopsis thaliana [4] (Arabidopsis thaliana, in vivo, 10 days) was 250 µM. The Inter with Arabidopsis thaliana [4] (Arabidopsis thaliana, in vivo, 10 days, 0.1 mM) is reported as 0 per 100 cells; in the data set on Arabidopsis thaliana [4] (setting [8]), 0 per 100 cells; in the data set with Arabidopsis thaliana [4] (setting [9]), 0 per 100 cells; in the data set with Arabidopsis thaliana [4] (setting [10]) it was 0 per 100 cells; with Arabidopsis thaliana [4] (setting [11]) it was 0 per 100 cells; in the data set with Arabidopsis thaliana [4] (setting [12]), 0 per 100 cells. In addition, in the data set with Arabidopsis thaliana [4] (setting [13]), the Inter stood at 0 per 100 cells. Moreover, the Healthy with Arabidopsis thaliana [4] (setting [8]), with Arabidopsis thaliana [4] (setting [9]), with Arabidopsis thaliana [4] (setting [10]), in the data set on Arabidopsis thaliana [4] (setting [11]), in the data set on Arabidopsis thaliana [4] (setting [12]) and in the data set with Arabidopsis thaliana [4] (setting [13]) was 0 per 100 cells in each case. For the same compound, the “offspring with small light green appearance (altered phenotype)” value in the data set on Arabidopsis thaliana [5] is reported as “No plants with altered phenotypes were observed”. Moreover, in the data set on Arabidopsis thaliana [5], the “phenotypically distinct plants among offspring at day 10” value was “no phenotypic difference was observed”. The “blue subclones (functional GUS) on YPD-ZEO-X-GLU plates” value in [6] is listed as “none are seen”.
Turning to `COc1ccc2nc3cc(Cl)ccc3c(NCCCNCCCl)c2c1` [ICR191], the “mutation induction in MMR defective cell lines” value in the data set on MMR defective cell lines is reported as “produce enhanced mutation rates in already MMR defective cell lines”.
As for `Nc1ncnc2c1ncn2[C@@H]1O[C@H](COP(=O)(O)OP(=O)(O)OP(O)(O)=S)[C@@H](O)[C@H]1O` [ATP[gamma]S], the “effect on MMR activity in vitro” value in data set [1] was “block the MMR activity”.

The record behind these values is patent US8105836B2, “Chemical inhibitors of mismatch repair” (priority 2001, dated 2012).
